This note sets out measurements from patent US12503436B2, “Compounds and compositions for treating conditions associated with STING activity” (NOVARTIS PHARMA AG, priority 2021, dated 2025).

The target in this experiment is STING (Homo sapiens, UniProt Q86WV6, G230A/H232R/R293Q/R71H). Briefly: STING reporter assay in THP1-Dual KO-IFNAR2 cells (2′3′cGAMP stimulation, luciferase reporter). It is filed as cell-based. The following applies: 15 μM 2′3′cGAMP stimulation, 24 h, read-out: Pharmaron, THP1_IFNAR2 STING 24 h Luci Normalized: GeoMean EC50. On the procedure:
STING pathway activation by the compounds described herein was measured using THP1-Dual™ cells (KO-IFNAR2).
THP1-Dual™ KO-IFNAR2 Cells (obtained from InvivoGen) were maintained in RPMI, 10% FCS, 5 ml P/S, 2 mM L-glut, 10 mM Hepes, and 1 mM sodium pyruvate. Compounds were spotted in empty 384 well tissue culture plates (Greiner 781182) by Echo for a final concentration of 0.0017-100 μM. Cells were plated into the TC plates at 40 μL per well, 2×10E6 cells/mL. For activation with STING ligand, 2′3′cGAMP (MW 718.38, obtained from Invivogen), was prepared in Optimem media.
The following solutions were prepared for each 1×384 plate: • Solution A: 2 mL Optimem with one of the following stimuli: • 60 μL of 10 mM 2′3′cGAMP→150 μM stock • Solution B: 2 mL Optimem with 60 μL Lipofectamine 2000→Incubate 5 min at RT
2 mL of solution A and 2 ml Solution B was mixed and incubated for 20 min at room temperature (RT). 20 μL of transfection solution (A+B) was added on top of the plated cells, with a final 2′3′cGAMP concentration of 15 μM. The plates were then centrifuged immediately at 340 g for 1 minute, after which they were incubated at 37° C., 5% CO2, >98% humidity for 24 h. Luciferase reporter activity was then measured. EC50 values were calculated by using standard methods known in the art.
Luciferase reporter assay: 10 μL of supernatant from the assay was transferred to white 384-plate with flat bottom and squared wells. One pouch of QUANTI-Luc™ Plus was dissolved in 25 mL of water. 100 μL of QLC Stabilizer per 25 mL of QUANTI-Luc™ Plus solution was added. 50 μL of QUANTI-Luc™ Plus/QLC solution per well was then added. Luminescence was measured on a Platereader (e.g., Spectramax I3X (Molecular Devices GF3637001)).
Luciferase reporter activity was then measured. EC50 values were calculated by using standard methods known in the art.
(Reporter assays use an easily measured gene product as a stand-in for the process of interest.)

pEC50: −log10 of the molar value.

STING, sequence (Q86WV6 whole entry R71H/G230A/H232R/R293Q): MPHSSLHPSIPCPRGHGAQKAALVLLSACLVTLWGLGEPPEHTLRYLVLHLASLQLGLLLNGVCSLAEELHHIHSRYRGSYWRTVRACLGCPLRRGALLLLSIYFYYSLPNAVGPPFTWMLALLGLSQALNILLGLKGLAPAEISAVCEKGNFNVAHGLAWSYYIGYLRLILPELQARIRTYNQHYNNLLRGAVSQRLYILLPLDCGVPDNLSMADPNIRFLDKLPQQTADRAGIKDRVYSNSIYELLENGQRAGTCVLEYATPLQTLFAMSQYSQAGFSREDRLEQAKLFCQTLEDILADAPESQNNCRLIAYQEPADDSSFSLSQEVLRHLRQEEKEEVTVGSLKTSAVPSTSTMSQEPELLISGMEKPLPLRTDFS

For the compound `CC1(C(=O)Nc2c[nH]c3ccc(OCc4ccc(C(F)(F)F)cc4)cc23)CCOCC1` [Compound 328, 4-methyl-N-(5-((4-(trifluoromethyl)benzyl)oxy)-1H-indol-3-yl)tetrahydro-2H-pyran-4-carboxamide], the pEC50 (commonly the negative decadic logarithm of the EC50, by convention in mol/L) was 6.00 to 6.70. The value for `CC(=O)Nc1c[nH]c2ccc(OCCC3(O)CCC(F)(F)CC3)cc12` [Compound 278, N-(5-(2-(4,4-difluoro-1-hydroxycyclohexyl)ethoxy)-1H-indol-3-yl)acetamide] was 4.00 to 5.30.

On to `CC[C@@H](O)C(=O)Nc1c[nH]c2ccc(OCC[C@@H]3C[C@@H]4CN(CC(F)(F)F)C[C@@H]4C3)cc12` [Compound 522, (R)-2-hydroxy-N-(5-(2-((3aR,5r,6aS)-2-(2,2,2-trifluoroethyl)octahydrocyclopenta[c]pyrrol-5-yl)ethoxy)-1H-indol-3-yl)butanamide], for which the negative-log EC50 (pEC50) is 6.70 to 7.40.

Consider `COCCOCC(=O)Nc1c[nH]c2ccc(OCc3ccc(C(F)(F)F)cc3)cc12` [Compound 404, 2-(2-methoxyethoxy)-N-(5-((4-(trifluoromethyl)benzyl)oxy)-1H-indol-3-yl)acetamide], for which the pEC50 is 5.30 to 6.00.

Take “cis-3-hydroxy-N-(5-(2-((3aR,5r,6aS)-2-(2,2,2-trifluoroethyl)octahydrocyclopenta[c]pyrrol-5-yl)ethoxy)-1H-indol-3-yl)cyclobutane-1-carboxamide [Compound 344]”: the pEC50 is 6.00 to 6.70.

On to `CC(=O)Nc1c[nH]c2ccc(CCOc3ccc(C4CCC(F)(F)CC4)cc3)cc12` [Compound 224, N-(5-(2-(4-(4,4-difluorocyclohexyl)phenoxy)ethyl)-1H-indol-3-yl)acetamide], for which the pEC50 is 6.70 to 7.40. The value for `CC(C)(C)CC(=O)Nc1c[nH]c2ccc(OCc3ccc(C(F)(F)F)cc3)cc12` [Compound 314, 3,3-dimethyl-N-(5-((4-(trifluoromethyl)benzyl)oxy)-1H-indol-3-yl)butanamide] was 6.00 to 6.70; that for `C[C@]1(C(=O)Nc2c[nH]c3ccc(OCc4ccc(C(F)(F)F)cc4)cc23)C[C@H](O)C1` [Compound 415, trans-3-hydroxy-1-methyl-N-(5-((4-(trifluoromethyl)benzyl)oxy)-1H-indol-3-yl)cyclobutane-1-carboxamide] was 5.30 to 6.00; that for `CC(=O)Nc1c[nH]c2ccc(CCOc3ccnc(OC(F)F)c3)cc12` [Compound 491, N-[5-(2-{[2-(difluoromethoxy)pyridin-4-yl]oxy}ethyl)-1H-indol-3-yl]acetamide] was 6.00 to 6.70. With `O=C(Nc1c[nH]c2ccc(CCOc3ccc(C(F)(F)F)cc3)cc12)C1CC(F)C1` (stereo not drawn) [Compound 593, 3-fluoro-N-(5-(2-(4-(trifluoromethyl)phenoxy)ethyl)-1H-indol-3-yl)cyclobutane-1-carboxamide] the figure was 6.70 to 7.40. With `CC(=O)Nc1c[nH]c2ccc(CCOc3ccc(C(F)(F)F)cc3)nc12` [Compound 255, N-(5-(2-(4-(trifluoromethyl)phenoxy)ethyl)-1H-pyrrolo[3,2-b]pyridin-3-yl)acetamide] the figure was 5.30 to 6.00; with `CC(=O)Nc1c[nH]c2ccc(CCOc3cncc(C(F)F)c3)cc12` [Compound 439, N-[5-(2-{[5-(difluoromethyl)pyridin-3-yl]oxy}ethyl)-1H-indol-3-yl]acetamide], 4.00 to 5.30; with `CC(=O)Nc1c[nH]c2ccc(CCOc3cc(Cl)cc(C#N)c3)cc12` [Compound 476, N-{5-[2-(3-chloro-5-cyanophenoxy)ethyl]-1H-indol-3-yl}acetamide], 5.30 to 6.00. In the case of `O=C(Nc1c[nH]c2ccc(OCCc3ccc(C(F)(F)F)cc3)cc12)C1CC(CO)C1` (stereo not drawn) [Compound 312, 3-(hydroxymethyl)-N-(5-(4-(trifluoromethyl)phenethoxy)-1H-indol-3-yl)cyclobutane-1-carboxamide], the pEC50 is 6.70 to 7.40. As for `CC(=O)Nc1c[nH]c2ccc(CC(Cc3ccc(C(F)(F)F)cc3)NC(C)=O)cc12` (stereo not drawn) [Compound 516, N-(1-(3-acetamido-1H-indol-5-yl)-3-(4-(trifluoromethyl)phenyl)propan-2-yl)acetamide], the pEC50 was 4.00 to 5.30. As to `CC(=O)Nc1c[nH]c2ccc(C(O)CCc3ccc(C(F)(F)F)cc3)cc12` (stereo not drawn) [Compound 282, N-(5-(1-hydroxy-3-(4-(trifluoromethyl)phenyl)propyl)-1H-indol-3-yl)acetamide], the negative logarithm of the EC50 (pEC50) was 5.30 to 6.00.

Take `O=C(Nc1c[nH]c2ccc(OCc3ccc(C(F)(F)F)cc3)cc12)C1(C(F)(F)F)CC1` [Compound 315, 1-(trifluoromethyl)-N-(5-((4-(trifluoromethyl)benzyl)oxy)-1H-indol-3-yl)cyclopropane-1-carboxamide]: the pEC50 was 6.00 to 6.70. Turning to `CC1(C)OC(C)(C)C1C(=O)Nc1c[nH]c2ccc(OCc3ccc(C(F)(F)F)cc3)cc12` [Compound 496, 2,2,4,4-tetramethyl-N-(5-((4-(trifluoromethyl)benzyl)oxy)-1H-indol-3-yl)oxetane-3-carboxamide], the pEC50 was 6.00 to 6.70. The value for `CC1(C)CC1C(=O)Nc1c[nH]c2ccc(O[C@H]3C[C@H](c4ccc(C(F)(F)F)cc4)C3)cc12` (stereo partly drawn) [Compound 563, 2,2-dimethyl-N-(5-(trans-3-(4-(trifluoromethyl)phenyl)cyclobutoxy)-1H-indol-3-yl)cyclopropane-1-carboxamide] was 6.70 to 7.40. The value for `CC(=O)Nc1c[nH]c2c(C)cc(CCOc3ccc(C(F)(F)F)cc3)cc12` [Compound 264, N-(7-methyl-5-(2-(4-(trifluoromethyl)phenoxy)ethyl)-1H-indol-3-yl)acetamide] was 5.30 to 6.00; that for `CCO/C=C/c1ccc2[nH]cc(NC(=O)C3CCC3)c2c1` [Compound 143, (E)-N-(5-(2-ethoxyvinyl)-1H-indol-3-yl)cyclobutanecarboxamide] was 5.30 to 6.00. The value for `CC(=O)Nc1c[nH]c2ccc(CCOc3ccnc(C4CC4)c3)cc12` [Compound 463] was 4.00 to 5.30; that for `CC1(C(=O)Nc2c[nH]c3ccc(CCOc4ccc(C(F)(F)F)cc4)cc23)CCCO1` (stereo not drawn) [Compound 396, 2-methyl-N-(5-(2-(4-(trifluoromethyl)phenoxy)ethyl)-1H-indol-3-yl)tetrahydrofuran-2-carboxamide] was 6.00 to 6.70. With `CC(=O)Nc1c[nH]c2ccc(O[C@H]3C[C@H](c4ccc(C(F)(F)F)cc4)C3)cc12` [Compound 103, N-(5-(trans-3-(4-(trifluoromethyl)phenyl)cyclobutoxy)-1H-indol-3-yl)acetamide], the pEC50 is 6.70 to 7.40. In the case of `CC(=O)Nc1c[nH]c2ccc(CCOc3ccc4ccncc4c3)cc12` [Compound 449, N-{5-[2-(isoquinolin-7-yloxy)ethyl]-1H-indol-3-yl}acetamide], the negative-log EC50 (pEC50) is 5.30 to 6.00. The value for `CC1(C(=O)Nc2c[nH]c3ccc(OCCc4ccc(C(F)(F)F)cc4)cc23)CCC1` [Compound 235, 1-methyl-N-(5-(4-(trifluoromethyl)phenethoxy)-1H-indol-3-yl)cyclobutane-1-carboxamide] was 6.70 to 7.40; that for `CC(=O)Nc1c[nH]c2ccc(CCOC3CN(CC(F)(F)F)C3)cc12` [Compound 377, N-(5-(2-((1-(2,2,2-trifluoroethyl)azetidin-3-yl)oxy)ethyl)-1H-indol-3-yl)acetamide] was 4.00 to 5.30.
